Details: 343.15 K, Liquid, Vibrating tube method

CCCCCCCC(=O)OCC(COC(=O)CCCCCCC)(COC(=O)CCCCCCC)COC(=O)CCCCCCC [pentaerythritol tetraoctanoate]
Details	mass density [kg/m3]
4105.1 kPa	929.1
4132.4 kPa	929.2
4136.6 kPa	929.1
4140.2 kPa	929.1
4142.5 kPa	929
4144.7 kPa	929.2
4148 kPa	929.2
4149.4 kPa	929
4149.6 kPa	929
4163.9 kPa	929.2
4189.2 kPa	929.1
4213.5 kPa	929.1
4238.2 kPa	929.2
4268.5 kPa	929.1
4295 kPa	929.3
4321.4 kPa	929.2
4348.4 kPa	929.2
4373.8 kPa	929.1
4394.2 kPa	929.2
4418.5 kPa	929.1
4438.6 kPa	929.2
4459 kPa	929.3
4483.8 kPa	929.4
4504.7 kPa	929.3
4525.8 kPa	929.4
4546.8 kPa	929.4
4573.1 kPa	929.3
4596.8 kPa	929.5
4619 kPa	929.5
4641.5 kPa	929.4
4713.3 kPa	929.5
4740.6 kPa	929.4
4763.8 kPa	929.5
4787 kPa	929.6
4811.1 kPa	929.6
4839.6 kPa	929.6
4864.5 kPa	929.5
4889.8 kPa	929.7
4915.8 kPa	929.8
4945.5 kPa	929.6
4970.5 kPa	929.8
4996.2 kPa	929.6
5026.3 kPa	929.7
5052.8 kPa	929.8
5079.6 kPa	929.8
5112.2 kPa	929.7
5139.3 kPa	929.8
5167 kPa	929.8
5189.5 kPa	929.8
5228.6 kPa	929.8
5257.5 kPa	929.9
5286.4 kPa	929.8
5321 kPa	930
5350.7 kPa	930
5380.5 kPa	929.9
5410.7 kPa	929.9
5447.9 kPa	929.9
5480.3 kPa	930
5514 kPa	930.1
5545.6 kPa	930.2
5572.5 kPa	930.2
5593.9 kPa	930.1
5619.7 kPa	930.1
5642.1 kPa	930.2
5664.3 kPa	930.2
5686.4 kPa	930.2
5712.7 kPa	930.3
5735.2 kPa	930.2
5757.8 kPa	930.3
5785.1 kPa	930.2
5808.1 kPa	930.2
5832 kPa	930.3
5855.9 kPa	930.3
5884.4 kPa	930.4
5908.6 kPa	930.4
5933.3 kPa	930.4
5959.2 kPa	930.5
5984.1 kPa	930.3
6013.9 kPa	930.4
6039.1 kPa	930.4
6064.3 kPa	930.5
6090.1 kPa	930.4
6121 kPa	930.5
6147.5 kPa	930.5
6174.6 kPa	930.5
6205.9 kPa	930.5
6232.5 kPa	930.6
6260.2 kPa	930.7
6288.7 kPa	930.6
6316.5 kPa	930.6
6348.8 kPa	930.7
6376.3 kPa	930.6
6404.7 kPa	930.6
6439.7 kPa	930.7
6468.8 kPa	930.7
6497.8 kPa	930.7
6532.7 kPa	930.8
6563.4 kPa	930.8
6593.5 kPa	930.9
6624.3 kPa	930.8
6662.3 kPa	930.8
6694.9 kPa	930.9
6726.4 kPa	930.9
6757.3 kPa	930.9
6788.9 kPa	931.1
6826.4 kPa	931
6858.7 kPa	931.1
6891.5 kPa	931
6930.9 kPa	931.2
6964.4 kPa	931
6998.3 kPa	931.1
7038.9 kPa	931.2
7073.6 kPa	931.2
7109 kPa	931.2
7146.6 kPa	931.3
7184.3 kPa	931.3
7220.4 kPa	931.2
7264.4 kPa	931.2
7301.6 kPa	931.4
7339.6 kPa	931.5
7378.1 kPa	931.3
7424.8 kPa	931.3
7463.5 kPa	931.5
7503.2 kPa	931.5
7535.8 kPa	931.5
7575 kPa	931.6
7614.7 kPa	931.5
7673.1 kPa	931.6
7715 kPa	931.7
7765.2 kPa	931.6
7808 kPa	931.8
7853.1 kPa	931.7
7898.8 kPa	931.7
7950.2 kPa	931.8
7984.6 kPa	931.8
8150.9 kPa	931.9
8189.7 kPa	932
8222.6 kPa	932
8255.6 kPa	932
8295.8 kPa	932.1
8329.6 kPa	932.1
8363.2 kPa	932.1
8515 kPa	932.1
8550.2 kPa	932.2
8585.9 kPa	932.3
8629.7 kPa	932.3
8666.6 kPa	932.3
8703.3 kPa	932.4
8739.9 kPa	932.4
8784.7 kPa	932.5
8991.7 kPa	932.5
9031.4 kPa	932.6
9071.9 kPa	932.5
9120.5 kPa	932.6
9162.4 kPa	932.7
9204.8 kPa	932.7
9248.6 kPa	932.6
9301 kPa	932.7
9344.4 kPa	932.8
9387.6 kPa	932.8
9449 kPa	932.8
9480 kPa	933
9517.6 kPa	933
9549.6 kPa	933.1
9582.5 kPa	933
9620.6 kPa	932.9
9653.7 kPa	933.2
9687.4 kPa	933
9726.7 kPa	933.1
9760 kPa	933.1
9793.4 kPa	933.2
9827.7 kPa	933
9868.1 kPa	933.1
9902.1 kPa	933.2
9943.1 kPa	933.2
9978.4 kPa	933.4
10014 kPa	933.3
10058 kPa	933.4
10096 kPa	933.4
10138 kPa	933.4
10176 kPa	933.4
10207 kPa	933.3
10234 kPa	933.4
10256 kPa	933.5
10278 kPa	933.4
10305 kPa	933.6
10327 kPa	933.5
10349 kPa	933.5
10376 kPa	933.6
10422 kPa	933.8
10450 kPa	933.7
10474 kPa	933.6
10497 kPa	933.7
10520 kPa	933.7
10543 kPa	933.8
10572 kPa	933.6
10595 kPa	933.7
10618 kPa	933.7
10647 kPa	933.6
10671 kPa	933.7
10699 kPa	933.7
10723 kPa	933.8
10748 kPa	933.8
10777 kPa	933.8
10803 kPa	933.9
10827 kPa	933.9
10852 kPa	933.8
10881 kPa	933.9
10906 kPa	933.9
10936 kPa	934
10961 kPa	934
10987 kPa	933.9
11012 kPa	933.9
11042 kPa	934
11068 kPa	934
11099 kPa	934.1
11126 kPa	933.9
11153 kPa	934
11180 kPa	934.2
11206 kPa	934.2
11238 kPa	934.2
11264 kPa	934.2
11296 kPa	934.3
11323 kPa	934.3
11350 kPa	934.2
11383 kPa	934.3
11410 kPa	934.3
11438 kPa	934.3
11471 kPa	934.3
11499 kPa	934.3
11528 kPa	934.4
11561 kPa	934.4
11590 kPa	934.4
11618 kPa	934.4
11647 kPa	934.2
11710 kPa	934.4
11739 kPa	934.5
11774 kPa	934.4
11804 kPa	934.5
11834 kPa	934.4
11869 kPa	934.5
11900 kPa	934.6
11930 kPa	934.7
11966 kPa	934.6
11997 kPa	934.7
12027 kPa	934.6
12064 kPa	934.7
12095 kPa	934.7
12126 kPa	934.7
12163 kPa	934.8
12195 kPa	934.7
12227 kPa	934.8
12265 kPa	934.9
12296 kPa	934.8
12329 kPa	934.9
12362 kPa	934.8
12401 kPa	934.9
12434 kPa	935
12468 kPa	935
12507 kPa	935
12541 kPa	935
12575 kPa	935
12615 kPa	935.1
12649 kPa	935.2
12684 kPa	935.1
12725 kPa	935.1
12760 kPa	935.1
12797 kPa	935.2
12831 kPa	935.2
12873 kPa	935.3
12909 kPa	935.2
12944 kPa	935.3
12980 kPa	935.3
13024 kPa	935.5
13060 kPa	935.3
13096 kPa	935.4
13140 kPa	935.5
13177 kPa	935.5
13222 kPa	935.7
13261 kPa	935.6
13300 kPa	935.6
13339 kPa	935.6
13384 kPa	935.7
13423 kPa	935.6
13462 kPa	935.6
13508 kPa	935.7
13548 kPa	935.8
13587 kPa	935.6
13635 kPa	935.7
13675 kPa	935.7
13716 kPa	935.8
13807 kPa	936
13849 kPa	936
13893 kPa	936
13947 kPa	936
13993 kPa	936.1
